# ChEMBL document CHEMBL1154985, “Discovery of a novel series of potent S1P1 agonists” (Bioorg Med Chem Lett, 2010)
# Activity calls are given as the source filed them. The rule behind the calls is not given here.
# Experiments:
# [1] = molecular target: Sphingosine 1-phosphate receptor 5 (Homo sapiens, UniProt Q9H228); assay: Agonist activity at S1P5 receptor expressed in CHO cells after 60 mins by [35S]-GTPgammaS binding assay; assay type: functional, cell-based
# [2] = Solubility in PBS by nephelometry; assay type: physicochemical
# [3] = Intrinsic clearance in human liver microsomes at 3 uM by LC/MS-MS analysis; assay type: ADME, Microsome
# [4] = Intrinsic clearance in rat liver microsomes at 3 uM by LC/MS-MS analysis; assay type: ADME, Microsome
# [5] = Apparent permeability across human Caco-2 cells by LC/MS-MS analysis; assay type: ADME, cell-based
# [6] = molecular target: T1, Sphingosine 1-phosphate receptor 1 (Homo sapiens, UniProt P21453); assay: Agonist activity at S1P1 receptor expressed in CHO cells after 60 mins by [35S]-GTPgammaS binding assay; assay type: functional, cell-based
# [7] = Clearance in mouse; assay type: ADME, organism-based; details: in vivo
# [8] = molecular target: Sphingosine 1-phosphate receptor 3 (Homo sapiens, UniProt Q99500); assay: Agonist activity at S1P3 receptor expressed in CHO cells after 60 mins by [35S]-GTPgammaS binding assay; assay type: functional, cell-based
# [9] = Lipophilicity, log P of the compound; assay type: physicochemical; details: octanol/water
# [10] = tested on: Mus musculus; assay: Reduction of S1P1-mediated lymphopenia in mouse assessed as blood lymphocyte depletion at 30 mg/kg, po after 4 hrs; assay type: functional; set-up: scale not given: the % may be the effect or the level left
# [11] = tested on: Mus musculus; assay: Reduction of lymphopenia in mouse assessed as effect on erythrocytes at 30 mg/kg, po after 4 hrs; assay type: functional, organism-based; set-up: dose 30 mg/kg
# [12] = tested on: Mus musculus; assay: Reduction of lymphopenia in mouse assessed as effect on platelets at 30 mg/kg, po after 4 hrs; assay type: functional, organism-based; set-up: dose 30 mg/kg
# [13] = molecular target: T1, Sphingosine 1-phosphate receptor 1; assay: Agonist activity at S1P1 receptor expressed in human U20S cells assessed as receptor internalization by green fluorescent protein reporter gene assay; assay type: functional, cell-based, U2OS
# [14] = Lipophilicity, log D at pH 7.4; assay type: physicochemical; details: buffer
# Sphingosine 1-phosphate receptor 3, sequence (Q99500 whole entry): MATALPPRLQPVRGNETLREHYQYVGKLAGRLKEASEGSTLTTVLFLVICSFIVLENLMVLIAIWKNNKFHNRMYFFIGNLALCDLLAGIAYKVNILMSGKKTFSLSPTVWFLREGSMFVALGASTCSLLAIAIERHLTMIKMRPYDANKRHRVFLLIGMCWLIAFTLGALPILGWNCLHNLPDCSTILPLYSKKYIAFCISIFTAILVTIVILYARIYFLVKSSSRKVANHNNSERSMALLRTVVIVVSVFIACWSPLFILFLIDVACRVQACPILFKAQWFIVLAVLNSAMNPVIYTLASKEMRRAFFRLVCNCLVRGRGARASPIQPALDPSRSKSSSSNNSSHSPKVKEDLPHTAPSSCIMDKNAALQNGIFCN
# T1 sequence (P21453 whole entry): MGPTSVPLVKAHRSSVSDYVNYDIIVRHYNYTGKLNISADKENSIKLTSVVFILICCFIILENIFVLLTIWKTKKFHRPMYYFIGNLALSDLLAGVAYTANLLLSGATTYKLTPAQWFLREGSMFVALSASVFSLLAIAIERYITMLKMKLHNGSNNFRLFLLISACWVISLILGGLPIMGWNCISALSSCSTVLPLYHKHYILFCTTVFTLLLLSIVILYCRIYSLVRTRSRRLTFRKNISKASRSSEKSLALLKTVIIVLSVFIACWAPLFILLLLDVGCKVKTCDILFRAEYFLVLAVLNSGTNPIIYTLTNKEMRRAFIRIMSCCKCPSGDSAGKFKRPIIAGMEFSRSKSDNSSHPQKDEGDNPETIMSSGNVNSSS
# Sphingosine 1-phosphate receptor 5, sequence (Q9H228 whole entry): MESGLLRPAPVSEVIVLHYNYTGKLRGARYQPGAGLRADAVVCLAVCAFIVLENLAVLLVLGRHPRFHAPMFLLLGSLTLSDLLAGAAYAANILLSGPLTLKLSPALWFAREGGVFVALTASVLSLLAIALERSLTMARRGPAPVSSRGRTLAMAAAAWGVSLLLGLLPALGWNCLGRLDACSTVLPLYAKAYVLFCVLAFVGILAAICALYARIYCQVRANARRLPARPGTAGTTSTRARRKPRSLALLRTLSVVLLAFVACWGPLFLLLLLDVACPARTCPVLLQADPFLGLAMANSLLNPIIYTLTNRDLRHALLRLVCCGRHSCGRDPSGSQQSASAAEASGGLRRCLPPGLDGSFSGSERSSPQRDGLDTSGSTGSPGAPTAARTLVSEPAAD
EC50 [1],solubility kinetic [2],microsomal CLint at 3 µM [3],microsomal CLint at 3 µM [4],Papp [5],EC50 [6],EC50 [8],SMILES,further results
0.114 µM,> 51 µg/mL,25 µL/min/mg,25 µL/min/mg,2 ×10⁻⁶ cm/s,,,Cc1cc(S(=O)(=O)NCCC(=O)O)ccc1NC(=O)c1cc(N(CC2CC2)C2CCCCC2)ncn1,
,,,,,> 20 µM,,Cc1cc(O)ccc1NC(=O)c1cc(NC(C)(C)C)ncn1,
,,,,,> 20 µM,,CC(=O)Nc1ccc(NC(=O)c2cc(NC3CCCCC3)ncn2)cc1,
,16 µg/mL,4 µL/min/mg,7 µL/min/mg,21.4 ×10⁻⁶ cm/s,0.375 µM,,CCCN(CCC)c1cc(C(=O)Nc2ccc(O)cc2)ncn1,
,,,,,,,NS(=O)(=O)c1ccc(NC(=O)c2cc(NC3CCCCC3)ncn2)cc1,clearance [7]: 5 mL/min/kg
,,,,,> 20 µM,,Cc1cc(O)ccc1NC(=O)c1cc(NC2CC2)ncn1,
,,,,,7.3 µM,,CN(c1cc(C(=O)Nc2ccc3[nH]nnc3c2)ncn1)C1CCCCC1,
0.0063 µM,> 45 µg/mL,< 10 µL/min/mg,< 10 µL/min/mg,0.8 ×10⁻⁶ cm/s,,1.09 µM,O=C(O)CCNCc1ccc(NC(=O)c2cc(N(CC3CC3)C3CCCCC3)ncn2)cc1,
,5 µg/mL,43 µL/min/mg,15 µL/min/mg,12.5 ×10⁻⁶ cm/s,,> 30 µM,Cc1cc(S(N)(=O)=O)ccc1NC(=O)c1cc(NC2CCCCC2)ncn1,logP [9]: 3.6
,,,,,> 20 µM,,O=C(Nc1ccc(F)cc1F)c1cc(NC2CCCCC2)ncn1,
,,,,,,> 30 µM,O=C(Nc1ccc(O)cc1)c1cc(NC2CCCCC2)ncn1,
,,,,,> 20 µM,,O=C(Nc1ccc(CO)cc1)c1cc(NC2CCCCC2)ncn1,
,5 µg/mL,< 10 µL/min/mg,26 µL/min/mg,0.1 ×10⁻⁶ cm/s,,,Cc1cc2[nH]ncc2cc1NC(=O)c1cc(N(CC2CC2)C2CCCCC2)ncn1,logP [9]: 6.1
0.142 µM,11 µg/mL,17 µL/min/mg,57 µL/min/mg,8.5 ×10⁻⁶ cm/s,,,CCCN(CC1CC1)c1cc(C(=O)Nc2ccc3[nH]ncc3c2)ncn1,Activity [10]: 72%; Activity [11]: inactive; Activity [12]: inactive; logP [9]: 4.6; EC50 [13]: 0.012 µM
0.096 µM,1 µg/mL,130 µL/min/mg,14 µL/min/mg,,0.0016 µM,> 30 µM,Cc1cc(S(N)(=O)=O)ccc1NC(=O)c1cc(N(CC2CC2)C2CCCCC2)ncn1,logP [9]: 5.7
,,,,,> 20 µM,,COc1ccc(NC(=O)c2cc(NC3CCCCC3)ncn2)cc1,
0.258 µM,> 32 µg/mL,2 µL/min/mg,18 µL/min/mg,21.8 ×10⁻⁶ cm/s,,> 30 µM,Cc1cc(O)ccc1NC(=O)c1cc(NC2CCCCC2)ncn1,logP [9]: 4.1; clearance [7]: 80.8 mL/min/kg
0.191 µM,8 µg/mL,22 µL/min/mg,52 µL/min/mg,,,> 30 µM,Cc1cc(O)ccc1NC(=O)c1cc(N(CC2CC2)C2CCCCC2)ncn1,logP [9]: 7.4
,,,,,12.1 µM,,O=C(Nc1ccc2[nH]ccc2c1)c1cc(NC2CCCCC2)ncn1,
,,,,,0.006 µM,,CNS(=O)(=O)c1ccc(NC(=O)c2cc(N(CC3CC3)C3CCCCC3)ncn2)c(C)c1,
,,,,,> 20 µM,,CN(c1ccccc1)c1cc(C(=O)Nc2ccc(O)cc2)ncn1,
0.0006 µM,22 µg/mL,< 10 µL/min/mg,< 10 µL/min/mg,2.4 ×10⁻⁶ cm/s,0.003 µM,0.236 µM,Cc1cc(CN2CC(C(=O)O)C2)ccc1NC(=O)c1cc(N(CC2CC2)C2CCCCC2)ncn1,logD [14]: > 2.7; EC50 [13]: 0.003 µM
,,,,,0.405 µM,,CCN(c1cc(C(=O)Nc2ccc(O)cc2C)ncn1)C1CCCCC1,
